According to patent US20240148821A1, “PHARMACEUTICAL USE OF CYCLIC PEPTIDE COMPOUND” (CHUGAI SEIYAKU KABUSHIKI KAISHA, priority 2021, published 2024):
Numbered stars: 1 amine (or outer) side, 2 acyl side, 3 side chain; on linkers, the order of the positions; unused ones are H or OH. Bridge positions count the residues as written; N and C are the ends. Square brackets hold non-standard residues; d marks the D form. Peptide text beside a SMILES is read from it. * marks the point of attachment. hPhe(3-Cl-4-CF3) = N[C@@H](CCc1ccc(C(F)(F)F)c(Cl)c1)C(=O)O; X24 = COc1cncc(C[C@@H](C(=O)[*:2])N(C)[*:1])c1; NEtPhe(4-Me) = CCN[C@@H](Cc1ccc(C)cc1)C(=O)O; NMePhe(4-Cl) = CN[C@@H](Cc1ccc(Cl)cc1)C(=O)O; NMePhe(2-CN) = CN[C@@H](Cc1ccccc1C#N)C(=O)O; NMePhe(4-F) = CN[C@@H](Cc1ccc(F)cc1)C(=O)O; NMedβ3hAla = C[C@H](CC(=O)[*:2])N(C)[*:1]; Leu(4,5-dehydro) = C=C(C)C[C@H](N)C(=O)O; NMeGly(cPent) = CN[C@H](C(=O)O)C1CCCC1; Phe(3-I) = N[C@@H](Cc1cccc(I)c1)C(=O)O; NMeCha = CN[C@@H](CC1CCCCC1)C(=O)O; NMehLeu = CN[C@@H](CCC(C)C)C(=O)O; Hyp = O=C(O)[C@@H]1C[C@@H](O)CN1; NMeCba = CN[C@@H](CC1CCC1)C(=O)O; NMeChg = CN[C@H](C(=O)O)C1CCCCC1; NMeI = CC[C@H](C)[C@H](NC)C(=O)O; NMeT = CN[C@H](C(=O)O)[C@@H](C)O; NMeD = CN[C@@H](CC(=O)O)C(=O)O; NMeL = CN[C@@H](CC(C)C)C(=O)O; NMeV = CN[C@H](C(=O)O)C(C)C; d(β3hA) = C[C@@H](N)CC(=O)O; NMeS = CN[C@@H](CO)C(=O)O; Morpholide = C1CN(*)CCO1; NMeA = CN[C@@H](C)C(=O)O; NMeAib = CNC(C)(C)C(=O)O; Piperidide = C1CCN(*)CC1; Ac5c = NC1(C(=O)O)CCCC1; Aze = O=C(O)[C@@H]1CCN1; Ac4c = NC1(C(=O)O)CCC1; Sar = CNCC(=O)O; Propyl = CCC*

test system: Human pancreatic cancer cell line AsPC-1 (G12D mutation Kras); assay: AsPC-1 cell growth inhibition (AsPC-1 CGI); format: cell-based; conditions: read-out: AsPC-1 cell growth inhibition, 50% growth inhibitory concentration (IC50 value); 96 hours, CellTiter-Glo, values classified in ranges
Experimental: Test compounds were serially dilated with dimethyl sulfoxide, and 200 nL was then dispensed to a U-bottom 96-well plate using Labcyte Echo. […] The cell suspension was dispensed to a. plate containing a test compound at 100 μL per well and incubated at 37° C. in a 5% carbon dioxide gas incubator. 96 hours later, 80 μL of CellTiter-Glo (Promega) was added to each well and fluorescence was measured.

SMILES | IC50 [nM]
CC[C@H](C)[C@@H]1NC(=O)[C@H](CC(C)C)N(C)C(=O)C[C@@H](C)NC(=O)[C@H](C(C)C)N(C)C(=O)C2(CCCC2)NC(=O)[C@@H]2CCCN2C(=O)[C@H](CCc2ccc(C(F)(F)F)c(Cl)c2)NC(=O)CN(C)C(=O)[C@H](CC2CCC2)N(C)C(=O)CN(C)C(=O)CN(C)C1=O [Compound 75] (cyclo([Ac5c][NMeV][d(β3hA)][NMeL]I[Sar][Sar][NMeCba][Sar][hPhe(3-Cl-4-CF3)]P)) | > 500
C=C(C)C[C@@H]1NC(=O)[C@H](Cc2cccc(I)c2)NC(=O)CN(C)C(=O)[C@H](Cc2ccc(Cl)cc2)N(C)C(=O)CN(C)C(=O)CN(C)C(=O)[C@H]([C@@H](C)CC)NC(=O)[C@H](CC(C)C)N(C)C(=O)C[C@@H](C(=O)N2CCCCC2)N(C)C(=O)[C@H](CC(C)C)NC(=O)C(C)(C)N(C)C1=O [Compound 1421] ([NMeL]I[Sar][Sar][NMePhe(4-Cl)][Sar][Phe(3-I)][Leu(4,5-dehydro)][NMeAib]L[NMeD]-Piperidide; lactam N-11) | > 500
CC[C@H](C)[C@@H]1NC(=O)[C@H](CC(C)C)N(C)C(=O)C[C@@H](C)NC(=O)[C@H](CCC(C)C)N(C)C(=O)C2(CCCC2)NC(=O)[C@@H]2CCCN2C(=O)[C@H](CCc2ccc(C(F)(F)F)c(Cl)c2)NC(=O)CN(C)C(=O)[C@H](CC2CCCCC2)N(C)C(=O)CN(C)C(=O)CN(C)C1=O [Compound 586] (cyclo([Ac5c][NMehLeu][d(β3hA)][NMeL]I[Sar][Sar][NMeCha][Sar][hPhe(3-Cl-4-CF3)]P)) | > 500
CC[C@H](C)[C@@H]1NC(=O)[C@H](CC(C)C)N(C)C(=O)C[C@@H](C(=O)N2CCCCC2)N(C)C(=O)[C@H](C2CCCCC2)N(C)C(=O)C2(CCCC2)NC(=O)[C@H](Cc2cncc(OC)c2)N(C)C(=O)[C@H](CCc2ccc(C(F)(F)F)c(Cl)c2)NC(=O)CN(C)C(=O)[C@H](CC2CCCCC2)N(C)C(=O)[C@@H]2CCN2C(=O)CN(C)C1=O [Compound 770] ([NMeL]I[Sar][Aze][NMeCha][Sar][hPhe(3-Cl-4-CF3)][X24][Ac5c][NMeChg][NMeD]-Piperidide; lactam N-11) | > 500
CC[C@H](C)[C@@H]1NC(=O)[C@H](C)N(C)C(=O)C[C@@H](C)NC(=O)[C@H](C2CCCC2)N(C)C(=O)C2(CCCC2)NC(=O)[C@@H]2CCCN2C(=O)[C@H](CCc2ccc(C(F)(F)F)c(Cl)c2)NC(=O)CN(C)C(=O)[C@H](Cc2ccc(F)cc2)N(C)C(=O)[C@@H]2CCCN2C(=O)CN(C)C1=O [Compound 146] (cyclo([Ac5c][NMeGly(cPent)][d(β3hA)][NMeA]I[Sar]P[NMePhe(4-F)][Sar][hPhe(3-Cl-4-CF3)]P)) | > 500
CC[C@H](C)[C@@H]1NC(=O)[C@H](CC(C)C)N(C)C(=O)C[C@@H](C(=O)N2CCCCC2)N(C)C(=O)[C@H](C2CCCCC2)N(C)C(=O)C2(CCCC2)NC(=O)[C@@H]2CCCN2C(=O)[C@H](CCc2ccc(C(F)(F)F)c(Cl)c2)NC(=O)CN(C)C(=O)[C@H]([C@@H](C)O)N(C)C(=O)CN(C)C(=O)CN(C)C1=O [Compound 427] ([NMeL]I[Sar][Sar][NMeT][Sar][hPhe(3-Cl-4-CF3)]P[Ac5c][NMeChg][NMeD]-Piperidide; lactam N-11) | > 500
CC[C@H](C)[C@@H]1NC(=O)[C@H](CC(C)C)N(C)C(=O)C[C@@H](C)NC(=O)[C@H](C(C)C)N(C)C(=O)C2(CCCC2)NC(=O)[C@@H]2CCCN2C(=O)[C@H](CCc2ccc(C(F)(F)F)c(Cl)c2)NC(=O)CN(C)C(=O)[C@H](Cc2ccccc2C#N)N(C)C(=O)CN(C)C(=O)CN(C)C1=O [Compound 767] (cyclo([Ac5c][NMeV][d(β3hA)][NMeL]I[Sar][Sar][NMePhe(2-CN)][Sar][hPhe(3-Cl-4-CF3)]P)) | > 500
CCCOC[C@H]1C(=O)N(C)CC(=O)N[C@@H](CCc2ccc(C(F)(F)F)c(Cl)c2)C(=O)N2CCC[C@H]2C(=O)NC2(CCCC2)C(=O)N(C)[C@@H](C2CCCC2)C(=O)N(C)[C@H](C(=O)N2CCOCC2)CC(=O)N(C)[C@@H](CC(C)C)C(=O)N[C@@H]([C@@H](C)CC)C(=O)N(C)[C@@H](C)C(=O)N2CC[C@H]2C(=O)N1C [Compound 974] ([NMeL]I[NMeA][Aze][NMeS](Propyl)[Sar][hPhe(3-Cl-4-CF3)]P[Ac5c][NMeGly(cPent)][NMeD]-Morpholide; lactam N-11) | ≤ 20
CCO[C@@H]1C[C@H]2C(=O)NC3(CCC3)C(=O)N(C)[C@@H]([C@@H](C)CC)C(=O)N(C)[C@H](C)CC(=O)N(C)[C@@H](CC(C)C)C(=O)N[C@@H]([C@@H](C)CC)C(=O)N(C)[C@@H](C)C(=O)N3CC[C@H]3C(=O)N(CC)[C@@H](Cc3ccc(C)cc3)C(=O)N(C)CC(=O)N[C@@H](CCc3ccc(C(F)(F)F)c(Cl)c3)C(=O)N2C1 [Compound 626] (cyclo([Ac4c][NMeI][NMedβ3hAla][NMeL]I[NMeA][Aze][NEtPhe(4-Me)][Sar][hPhe(3-Cl-4-CF3)][Hyp](Et))) | ≤ 20
